Measured values from paper PMC9431032, “Boosting Cosmeceutical Peptides: Coupling Imidazolium-Based Ionic Liquids to Pentapeptide-4 Originates New Leads with Antimicrobial and Collagenesis-Inducing Activities” (Microbiology Spectrum, 2022).
In brackets after ≈: the same amount, converted by molar mass. Several values for one entry are separate records, joined by “and”; a condition that tells them apart may be missing. Equal entries are not always repeated. Where two headings read alike, the source gives them in different places. Peptide text beside a SMILES is read from it. * marks the point of attachment. X2 = Cn1cc[n+](Cc2cn(CC(=O)*)nn2)c1; Palmitoyl = CCCCCCCCCCCCCCCC(=O)*

Key:
C. glabrata ATCC 90030 = assay: microbe, parasite or virus in culture; details: Nakaseomyces glabratus, ATCC90030
Experimental: (§1) The MIC values were determined according to the European Committee on Antimicrobial Susceptibility Testing (EUCAST) protocol ([36]) and are shown on Table 4.
(§2) (iii) Antifungal activity.

[1] = test system: C. parapsilosis ATCC 22019; assay: microbe, parasite or virus in culture; details: Lodderomyces parapsilosis, ATCC22019
Experimental: as §1, §2

C. albicans ATCC 90028 = assay: microbe, parasite or virus in culture; details: Candida albicans, ATCC90028
Experimental: as §1, §2

K. pneumonia ATCC 138830 = assay: microbe, parasite or virus in culture; details: Klebsiella pneumoniae, ATCC138830
Experimental: (§3) The antimicrobial activity of the IL-KTTKS conjugates was assessed in vitro against reference bacterial strains (American Type Culture Collection, ATCC). The minimal inhibitory concentration (MIC) was determined according to the Clinical and Laboratory Standards Institute (CLSI) guidelines ([28]) against Gram-positive (S. aureus, Enterococcus faecalis) and Gram-negative (Escherichia coli, Pseudomonas aeruginosa) bacteria.
(§4) (i) Antibacterial activity in standard conditions. The test conjugates and reference compounds were evaluated for their activity against three reference strains of Gram-negative bacteria, namely, E. coli (ATCC 25922), Pseudomonas aeruginosa (ATCC 27853), and Klebsiella pneumoniae (ATCC 13883), and the four following reference strains of Gram-positive bacteria, Staphylococcus aureus (ATCC 29213), S. Epidermidis (ATCC 14990), E. faecalis (ATCC 29212), and Streptococcus pyogenes (ATCC 19615). […] MBC values were also determined as previously reported ([52]).

E. faecalis ATCC 29212 = assay: microbe, parasite or virus in culture
Experimental: as §3, §4

P. aeruginosa ATCC 27853 = assay: microbe, parasite or virus in culture
Experimental: as §3, §4

S. aureus ATCC 29213 = assay: microbe, parasite or virus in culture
Experimental: as §3, §4

E. coli ATCC 25922 = assay: microbe, parasite or virus in culture
Experimental: as §3, §4

[2] = test system: HaCaT cells (human immortalized keratinocytes); assay: cells; type: cell-based
Experimental: (§5) The cytotoxicity of KTTK(C16Im)S and C16Im-KTTKS conjugates was assessed on human foreskin fibroblasts (HFF-1) and human immortalized keratinocytes (HaCaT). […] In turn, the parent IL [C16 M1Im][Br] and its […] equimolar mixture with PP4, KTTKS:[C16 M1Im][Br]
(§6) (iv) Toxicity to human cells. HaCat and HFF-1 were seeded at 4 × 10^4cell/mL in 96-well plate using in Dulbecco’s Modified Eagle Medium (DMEM; CLS) supplemented with 2% FBS (Biowest) and 1% of antibiotic/antimycotic solution (100 units/mL of penicillin, 10 mg/mL of streptomycin, and 0.25 mg/mL of amphotericin B, Sigma-Aldrich). The plate was incubated at 37°C in a 5% CO2 atmosphere, and the cells allowed to grow until confluence was reached. Then, solutions of the test compounds in DMEM supplemented with 2% FBS, in a concentration range between 6.3 and 100 μM, were added to the wells. After 24 h of incubation at 37°C in a 5% CO2 atmosphere, the cell viability was assessed through the resazurin reduction assay. Briefly, the medium was removed and then 20 μL of the alamarBlue Cell Viability Reagent (Resazurin sodium salt, Sigma-Aldrich) at 0.15 mg/mL in 100 μL of Hank’s Balanced Salt Solution (HBSS; Sigma-Aldrich) were added to each well; the plate was next incubated for 2 h at 37°C in a 5% CO2 atmosphere, after which fluorescence was read at 560/590 nm on a Flex Station 3 multi-mode microplate reader (Molecular Devices) ([53]). The IC50 values were thus determined using the GraphPad Prism 9.0 software, by applying the equation log(inhibitor) versus response with variable slope (four parameters).

[3] = test system: HFF-1 cells (human foreskin fibroblasts); type: cell-based; details: 24 h
Experimental: as §5, §6

[4] = type: physicochemical
Experimental: as §3
(vi) Quantitation of final peptides and their IL conjugates. Peptide stock solutions were prepared at approximately 10 mg/mL in distilled water except for C16-KTTKS-OH that was solubilized in DMSO. Accurate quantitation of the peptide solutions were quantitated by microvolume spectrophotometry at 205 nm, using a Thermo Scientific NanoDrop One system and quantitation method 31 that assumes an extinction coefficient ε205 of 31 mL·mg^−1·cm^−1 ([50]). […] To this end, the peptide was hydrolyzed using 6 M aqueous hydrochloric acid containing phenol (10% vol/vol), for 24 h at 110°C. The hydrolysate was next evaporated to dryness and the residue dissolved in HPLC-grade water (500 μL) containing α-aminobutyric acid as internal standard. The mixture thus obtained was then derivatized by the AccQ-Tag protocol from Waters using 6-aminoquinoyl-N-hydroxysuccinimidyl carbamate ([51]), and the resulting solution analyzed by HPLC (WATERS 600) with the UV-detector (WATERS 2487) set at 254 nm.

[5] = Enterococcus faecalis, ATCC29212
[6] = Staphylococcus aureus, ATCC29213
[7] = E. faecalis ATCC 29212, broth microdilution in cation-adjusted MHB2, CLSI, n = 3
[8] = P. aeruginosa ATCC 27853, broth microdilution in cation-adjusted MHB2, CLSI, n = 3
[9] = S. aureus ATCC 29213, broth microdilution in cation-adjusted MHB2, CLSI, n = 3
[10] = E. coli ATCC 25922, broth microdilution in cation-adjusted MHB2, CLSI, n = 3

CCCCCCCCCCCCCCCCn1cc[n+](C)c1 [[C16 M1Im][Br], 1-hexadecyl-3-methylimidazolium bromide, reference compound]
MIC (C. glabrata ATCC 90030): 0.93 µM
MIC [1]: 0.93 µM
MIC (C. albicans ATCC 90028): 0.93 µM
MIC (K. pneumonia ATCC 138830): 60 µM
MBC (E. faecalis ATCC 29212; [5]): 15 µM
MIC (E. faecalis ATCC 29212; [5]): 0.94 µM
MIC (P. aeruginosa ATCC 27853; Pseudomonas aeruginosa, ATCC27853): > 240 µM
MBC (S. aureus ATCC 29213; [6]): 30 µM
MIC (S. aureus ATCC 29213; [6]): 0.94 µM
MIC (E. coli ATCC 25922; Escherichia coli, ATCC25922): 60 µM
IC50 ([2]; Homo sapiens, HaCaT, 24 h incubation, 6.3-100 μM, resazurin, mean ± SEM of 2 independent experiments (n = 8), read-out: IC50 ± SEM): 6.27 ± 1.02 µM

CCCCCCCCCCCCCCCC(=O)N[C@@H](CCCCN)C(=O)N[C@H](C(=O)N[C@H](C(=O)N[C@@H](CCCCN)C(=O)N[C@@H](CO)C(=O)O)[C@@H](C)O)[C@@H](C)O [Peptide C16-KTTKS-OH] (Palmitoyl-KTTKS-OH)
IC50 [3]: 79.7 ± 2.82 µM
Behaviour when diluted in cation-adjusted Mueller-Hinton broth (MHB2) [4]: precipitated
Solubility in water [4]: poor solubility in water
Solvent in which the peptide was soluble [4]: dimethyl sulfoxide (DMSO)
IC50 ([2]; 24 h): > 100 µM

C[C@@H](O)[C@H](NC(=O)[C@@H](NC(=O)[C@@H](N)CCCCN)[C@@H](C)O)C(=O)N[C@@H](CCCCn1cc(C[n+]2ccn(C)c2)nn1)C(=O)N[C@@H](CO)C(N)=O [KTTK(MeIm)S]
MIC (E. faecalis ATCC 29212; [7]): > 954.2 μM and > 677.3 μg/mL
MIC (P. aeruginosa ATCC 27853; [8]): > 954.2 μM and > 677.3 μg/mL
MIC (S. aureus ATCC 29213; [9]): > 954.2 μM and > 677.3 μg/mL
MIC (E. coli ATCC 25922; [10]): > 954.2 μM and > 677.3 μg/mL

C[C@@H](O)[C@H](NC(=O)[C@@H](NC(=O)[C@@H](N)CCCCn1cc(C[n+]2ccn(C)c2)nn1)[C@@H](C)O)C(=O)N[C@@H](CCCCn1cc(C[n+]2ccn(C)c2)nn1)C(=O)N[C@@H](CO)C(N)=O [K(MeIm)TTK(MeIm)S]
MIC (E. faecalis ATCC 29212; [7]): > 1245.5 μM and > 1067.4 μg/mL
MIC (P. aeruginosa ATCC 27853; [8]): > 1245.5 μM and > 1067.4 μg/mL
MIC (S. aureus ATCC 29213; [9]): > 1245.5 μM and > 1067.4 μg/mL
MIC (E. coli ATCC 25922; [10]): > 1245.5 μM and > 1067.4 μg/mL

OC(Cn1cncn1)(Cn1cncn1)c1ccc(F)cc1F [Fluconazole, reference compound]
MIC (C. glabrata ATCC 90030): 26 µM (≈ 7.96 µg/mL)
MIC [1]: 6.5 µM (≈ 1.99 µg/mL)
MIC (C. albicans ATCC 90028): 1.6 µM (≈ 0.49 µg/mL)

CCCCCCCCCCCCCCn1cc[n+](Cc2cn(CCCC[C@H](NC(=O)[C@@H](NC(=O)[C@@H](NC(=O)[C@@H](N)CCCCN)[C@@H](C)O)[C@@H](C)O)C(=O)N[C@@H](CO)C(N)=O)nn2)c1 [KTTK(C14Im)S]
MIC (E. faecalis ATCC 29212; [7]): 58.9 μM and 52.6 μg/mL
MIC (P. aeruginosa ATCC 27853; [8]): 58.9 μM and 52.6 μg/mL
MIC (S. aureus ATCC 29213; [9]): 29.5 μM and 26.3 μg/mL
MIC (E. coli ATCC 25922; [10]): 29.5 μM and 26.3 μg/mL

C16-KTTKS-NH2 [C-terminal carboxamide analogue of Matrixyl]
Behaviour when diluted in cation-adjusted Mueller-Hinton broth (MHB2) [4]: precipitated
Solvent in which the peptide was soluble [4]: water

C[C@@H](O)[C@H](NC(=O)[C@@H](NC(=O)[C@@H](N)CCCCn1cc(C[n+]2ccn(C)c2)nn1)[C@@H](C)O)C(=O)N[C@@H](CCCCN)C(=O)N[C@@H](CO)C(N)=O [K(MeIm)TTKS]
MIC (E. faecalis ATCC 29212; [7]): > 1030.1 μM and > 731.2 μg/mL
MIC (P. aeruginosa ATCC 27853; [8]): > 1030.1 μM and > 731.2 μg/mL
MIC (S. aureus ATCC 29213; [9]): > 1030.1 μM and > 731.2 μg/mL
MIC (E. coli ATCC 25922; [10]): > 1030.1 μM and > 731.2 μg/mL

C[C@@H](O)[C@H](NC(=O)[C@H](CCCCN)NC(=O)Cn1cc(C[n+]2ccn(C)c2)nn1)C(=O)N[C@H](C(=O)N[C@@H](CCCCN)C(=O)N[C@@H](CO)C(N)=O)[C@@H](C)O [MeIm-KTTKS] (X2-KTTKS-NH2)
MIC (E. faecalis ATCC 29212; [7]): > 825.9 μM and > 633.4 μg/mL
MIC (P. aeruginosa ATCC 27853; [8]): > 825.9 μM and > 633.4 μg/mL
MIC (S. aureus ATCC 29213; [9]): > 825.9 μM and > 633.4 μg/mL
MIC (E. coli ATCC 25922; [10]): > 825.9 μM and > 633.4 μg/mL
